This experiment has as its target T1, hCaSR (Calcium sensing receptor) in stably transfected HEK293 cells (Homo sapiens, UniProt P41180).
T1 construct: expressed in transfected cells; host or cells: HEK293 (stably transfected)
T1 sequence (P41180 20-1078): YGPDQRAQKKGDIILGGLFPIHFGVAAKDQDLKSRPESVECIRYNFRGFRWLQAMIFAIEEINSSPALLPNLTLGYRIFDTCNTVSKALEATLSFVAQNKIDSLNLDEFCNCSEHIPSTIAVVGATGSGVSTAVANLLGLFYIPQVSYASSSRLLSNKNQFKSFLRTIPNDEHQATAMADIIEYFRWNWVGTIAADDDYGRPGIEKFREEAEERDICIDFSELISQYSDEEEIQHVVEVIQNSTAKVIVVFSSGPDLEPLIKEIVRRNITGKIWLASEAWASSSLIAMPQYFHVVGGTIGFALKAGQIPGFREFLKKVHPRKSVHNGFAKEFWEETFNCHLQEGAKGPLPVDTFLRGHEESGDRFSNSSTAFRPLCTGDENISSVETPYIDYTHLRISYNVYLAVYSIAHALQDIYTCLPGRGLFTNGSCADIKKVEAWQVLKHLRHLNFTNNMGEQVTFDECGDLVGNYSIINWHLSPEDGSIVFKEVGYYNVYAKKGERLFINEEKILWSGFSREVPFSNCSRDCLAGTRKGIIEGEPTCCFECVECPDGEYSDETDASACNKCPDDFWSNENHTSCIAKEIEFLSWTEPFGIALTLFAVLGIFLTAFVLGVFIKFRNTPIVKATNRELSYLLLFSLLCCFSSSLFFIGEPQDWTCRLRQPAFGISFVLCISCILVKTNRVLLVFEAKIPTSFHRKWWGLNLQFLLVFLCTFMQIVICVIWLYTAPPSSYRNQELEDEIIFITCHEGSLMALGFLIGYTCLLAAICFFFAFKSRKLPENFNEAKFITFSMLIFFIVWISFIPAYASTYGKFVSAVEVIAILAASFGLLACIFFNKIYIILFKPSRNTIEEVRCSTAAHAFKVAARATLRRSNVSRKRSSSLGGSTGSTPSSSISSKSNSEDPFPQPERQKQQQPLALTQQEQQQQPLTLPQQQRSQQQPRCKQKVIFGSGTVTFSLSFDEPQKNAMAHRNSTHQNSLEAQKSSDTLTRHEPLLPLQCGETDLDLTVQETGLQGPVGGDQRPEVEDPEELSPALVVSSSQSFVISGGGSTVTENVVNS
The experiment can be described thus: In-vitro assay of calcimimetics through modulation of calcium sensing receptor (CaSR): increase in intracellular calcium, FLIPR. The class given is cell-based. The conditions noted are these: HEK293 cells expressing hCaSR; intracellular calcium (Fluo4NW, FLIPR); 0.3 mM CaCl2; 8-point assay; read-out: EC50 in range. On the procedure:
In-Vitro Assay Method of Calcimemtics Through Modulation of Calcium Sensing Receptor (CaSR):
The ability of the compounds to modulate Calcium sensing receptor is determined by measuring an increase in intracellular calcium [Ca^2+i]. Stably transfected HEK293 cells expressing hCaSR_pTriEx-3 hygro vector are developed. Cells are grown overnight on a 96-well plate to 80% confluency in Ham's F12 containing 20% FBS at 37° C., 5% CO2 Subsequently, cells are washed extensively with 20 mM HEPES buffer containing 126 mM NaCl2, 1 mM MgCl2 and 4 mM KCl2 to remove serum components that might interfere with the assay. Cells are loaded with calcium sensing Fluo4NW dye in HEPES base buffer containing 0.1% BSA and 1 mg/ml glucose for 30 minutes to measure changes in intracellular calcium. The activities of the compounds are measured in FLIPR using 0.3 mM CaCl2 in 20 mM HEPES base buffer. The effectiveness of the compound to modulate receptor activity is determined by calculating the EC50 responses for that compound in an 8-point assay and plotted using GraphPad Prism 5.
The compounds prepared were tested using the above assay procedure and the results obtained are given below.
(A change in cytosolic calcium serves as a functional read-out for many receptors and channels.)

Structures can show the parent of a compound that is named as a salt.

Turning to `COc1cccc([C@@H](C)NCC2COCCN2c2cccc(C(F)(F)F)c2)c1` (single isomer, unassigned) [4a], the EC50 (commonly the concentration that produces a half-maximal response) lay within 0.02 to 0.05 µM.

For the compound `COc1cccc(N2CCOCC2CN[C@H](C)c2cccc3ccccc23)c1` (single isomer, unassigned) [5a], the EC50 lay within 0.05 to 0.2 µM. In the case of `COc1cccc(N2CCOCC2CN[C@H](C)c2cccc3ccccc23)c1` (single isomer, unassigned) [5b] it was less than 0.02 µM. `COc1cccc([C@@H](C)NCC2COCCN2c2cccc(OC)c2)c1` (single isomer, unassigned) [6a]: the EC50 lay in the range of 0.02 to 0.05 µM. Consider `Cc1ccc(N2CCOCC2CN[C@H](C)c2cccc3ccccc23)cc1` (single isomer, unassigned) [7b], for which the EC50 is 0.02 to 0.05 µM. As to `COc1cccc([C@@H](C)NCC2COCCN2c2cccc(C)c2)c1` (single isomer, unassigned) [10a], the EC50 fell in the range of 0.05 to 0.2 µM. In the case of `COc1cccc([C@@H](C)NCC2COCCN2c2cccc(C)c2)c1` (single isomer, unassigned) [10b] it was less than 0.02 µM; in that of `COc1cccc([C@@H](C)NCC2COCCN2c2ccccc2)c1` (single isomer, unassigned) [11a], less than 0.02 µM.

As for `COc1cccc(N2CCOC(CN[C@H](C)c3cccc4ccccc34)C2)c1` (single isomer, unassigned) [25a], the EC50 is less than 0.02 µM. In the case of `COc1cccc(N2CCOC(CN[C@H](C)c3cccc4ccccc34)C2)c1` (single isomer, unassigned) [25b] it was 0.02 to 0.05 µM; in that of `C[C@@H](NCC1CN(c2ccccc2)CCO1)c1cccc2ccccc12` (single isomer, unassigned) [26a], less than 0.02 µM. In the case of `Cc1ccc(N2CCOC(CN[C@H](C)c3cccc4ccccc34)C2)cc1` (single isomer, unassigned) [27a] it was 0.05 to 0.2 µM; in that of `Cc1ccc(N2CCOC(CN[C@H](C)c3cccc4ccccc34)C2)cc1` (single isomer, unassigned) [27b], less than 0.02 µM; in that of `C[C@@H](NCC1CN(c2ccc(C(F)(F)F)cc2)CCO1)c1cccc2ccccc12` (single isomer, unassigned) [33a], less than 0.02 µM. As to `C[C@@H](NCC1CN(c2ccc(C(F)(F)F)cc2)CCO1)c1cccc2ccccc12` (single isomer, unassigned) [33b], the EC50 lay in the range of 0.02 to 0.05 µM. In the case of `C[C@@H](NCC1CN(c2ccc(F)c(F)c2)C(=O)CO1)c1cccc2ccccc12` (single isomer, unassigned) [62a, hydrochloride] it was less than 0.02 µM. Turning to `C[C@@H](NCC1CN(c2ccc(F)c(F)c2)C(=O)CO1)c1cccc2ccccc12` (single isomer, unassigned) [62b, hydrochloride], the EC50 lay in the range of 0.02 to 0.05 µM. In the case of `C[C@@H](NCC1CN(Cc2cccc(C(F)(F)F)c2)C(=O)CO1)c1cccc2ccccc12` (single isomer, unassigned) [Example 70a, hydrochloride], the EC50 was less than 0.02 µM.

With `C[C@@H](NCC1CN(Cc2cc(F)ccc2F)C(=O)CO1)c1cccc2ccccc12` (single isomer, unassigned) [Example 72a, hydrochloride], the EC50 is less than 0.02 µM. As to `CC(C)N1CC(CN[C@H](C)c2cccc3ccccc23)OCC1=O` (single isomer, unassigned) [Example 93b, hydrochloride], the EC50 is 0.05 to 0.2 µM. On to `C[C@@H](NCC1CN(CC2CC2)C(=O)CO1)c1cccc2ccccc12` (single isomer, unassigned) [Example 97a, hydrochloride], for which the EC50 is less than 0.02 µM. As to `C[C@@H](NCC1CN(CCc2ccc(F)cc2)C(=O)CO1)c1cccc2ccccc12` (single isomer, unassigned) [Example 98a, hydrochloride], the EC50 was less than 0.02 µM. In the case of `COc1cc([C@@H](C)NCC2CN(Cc3ccc(F)cc3)C(=O)CO2)ccc1F` (single isomer, unassigned) [Example 101a, hydrochloride] it was 0.02 to 0.05 µM; in that of `Cc1cc(N2CCOC(CCN[C@H](C)c3cccc4ccccc34)C2)ccc1C(=O)O` (single isomer, unassigned) [Example 104a], 0.05 to 0.2 µM.

The record behind these values is US9382216B2, “Substituted morpholines as modulators for the calcium sensing receptor” (LUPIN LIMITED, priority 2011, dated 2016).
